We go through 18 compounds from patent publication US20100184815A1 (priority 2008, published 2010).

One data set concerns the target T1, Gal-4 hPPARγ (Homo sapiens, UniProt P37231).
T1 construct: Plasmids pGal4-hPPARα, pGal4-hPPARγ, pGal4-hPPARδ and pG5-TK-pGL3 were constructed as previously described by Staels, Bart, et al., Nature 1998 Jun; 25
T1 sequence (P37231 238-505 limits assumed): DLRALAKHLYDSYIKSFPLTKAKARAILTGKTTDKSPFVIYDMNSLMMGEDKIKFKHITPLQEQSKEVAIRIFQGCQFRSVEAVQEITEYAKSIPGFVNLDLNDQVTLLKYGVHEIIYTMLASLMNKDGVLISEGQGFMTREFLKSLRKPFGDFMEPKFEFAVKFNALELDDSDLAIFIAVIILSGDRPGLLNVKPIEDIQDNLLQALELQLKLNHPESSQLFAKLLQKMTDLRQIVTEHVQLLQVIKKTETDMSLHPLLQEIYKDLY
The data set can be described thus: Gal4-hPPARγ transient transfection reporter assay in Cos cells. The note with it: luciferase reporter, 24 hours with compound, scale 1-5, read-out: Gal-4 hPPAR γ EC50 (scaled number). Type of data set: cell-based. The method in brief: (§1)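 Cos cells transiently co-transfected with Gal4-hPPAR expression plasmid, pG5-TK-pGL3 luciferase reporter and β-galactosidase control, then treated 24 h with increasing compound concentrations in DMEM containing 0.2% FCS. Luciferase normalised to β-galactosidase; EC50 from curve fit, at least three experiments.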

Data set [1] in a line: Metabolism studies using human liver microsomal preparations. The format is in vitro ADME. The note with it: for HLMs Predominant Enzyme: comparison of half life with and without NADPH: Esterase, CYP or Mixed; for half-life: pH 7.4, read-out: HLMs t1/2; for half-life / HLMs t1/2 (min): pooled human liver microsomes, with NADPH (CYP system active), 37° C. The method in brief:
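Pooled human liver microsomes in 50 mM Tris pH 7.4 with 5 mM MgCl2 at 37° C, with or without NADPH-generating system; buffer-only control for stability. Parent loss and acid metabolite formation followed by LC-MS/MS over 0–90 min. Half-life reported with NADPH; comparison with (−)NADPH assigns predominant enzyme.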

Another data set has as its target T2, Gal-4 hPPARα (Homo sapiens, UniProt Q07869).
T2 construct: Plasmids pGal4-hPPARα, pGal4-hPPARγ, pGal4-hPPARδ and pG5-TK-pGL3 were constructed as previously described by Staels, Bart, et al., Nature 1998 Jun; 25
T2 sequence (Q07869 200-468 limits assumed): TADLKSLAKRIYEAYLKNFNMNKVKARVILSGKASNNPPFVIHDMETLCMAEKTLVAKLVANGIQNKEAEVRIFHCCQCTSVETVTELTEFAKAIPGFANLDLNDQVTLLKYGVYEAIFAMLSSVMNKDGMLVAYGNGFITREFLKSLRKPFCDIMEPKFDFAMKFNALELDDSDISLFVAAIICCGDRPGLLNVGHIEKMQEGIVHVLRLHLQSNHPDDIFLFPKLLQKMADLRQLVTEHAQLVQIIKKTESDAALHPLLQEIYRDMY
The data set can be described thus: Gal4-hPPARα transient transfection reporter assay in Cos cells. Type of data set: cell-based. The note with it: luciferase reporter, 24 hours with compound, scale 1-5, read-out: Gal-4 hPPAR α EC50 (scaled number). The method in brief:
as §1

Regarding `CCCCCCCCn1c(COC(=O)c2ccc(OC(C)(C)C(=O)O)cc2)nn(Cc2ccc(C)cc2)c1=O` [Compound 152, 2-methyl-2-(4-(((1-(4-methylbenzyl)-4-octyl-5-oxo-4,5-dihydro-1H-1,2,4-triazol-3-yl)methoxy)carbonyl)phenoxy)propanoic acid], the EC50 on Gal-4 hPPARγ was more than 1000 nM. In data set [1], the “HLMs Predominant Enzyme” value is “Esterase” and the half-life worked out at 3 h. Further, the EC50 at Gal-4 hPPARα was 51 to 200 nM.
For the compound `COC(c1ccc(Cn2cc(COC(=O)c3ccc(SC(C)(C)C(=O)O)cc3)nn2)cc1)(C(F)(F)F)C(F)(F)F` [Compound 75, 2-(4-(((1-(4-(1,1,1,3,3,3-hexafluoro-2-methoxypropan-2-yl)benzyl)-1H-1,2,3-triazol-4-yl)methoxy)carbonyl)phenylthio)-2-methylpropanoic acid], the 50% effective concentration (EC50) at Gal-4 hPPARγ was more than 1000 nM; at Gal-4 hPPARα, 51 to 200 nM. Besides, the “HLMs Predominant Enzyme” value in data set [1] was “Esterase”. Moreover, the half-life in data set [1] was 0.417 h.
As to `CCCCCCCn1c(COC(=O)c2ccc(SC(C)(C)C(=O)O)cc2)nn(Cc2ccc(C(C)(C)C)cc2)c1=O` [Compound 189, 2-(4-(((1-(4-tert-butylbenzyl)-4-heptyl-5-oxo-4,5-dihydro-1H-1,2,4-triazol-3-yl)methoxy)carbonyl)phenylthio)-2-methylpropanoic acid], at Gal-4 hPPARγ, the concentration giving a half-maximal response (EC50) is 1 to 50 nM. Moreover, in data set [1], the “HLMs Predominant Enzyme” value is “CYP” and the half-life stood at 1.5 h. In addition, the EC50 at Gal-4 hPPARα fell in the range of 1 to 50 nM.
Take `CCCCCCCn1c(COC(=O)c2ccc(OC(C)(C)C(=O)O)cc2)nn(Cc2ccc(C)cc2)c1=O` [Compound 192, 2-(4-(((4-heptyl-1-(4-methylbenzyl)-5-oxo-4,5-dihydro-1H-1,2,4-triazol-3-yl)methoxy)carbonyl)phenoxy)-2-methylpropanoic acid]: the figures for the EC50 on Gal-4 hPPARγ and on Gal-4 hPPARα were more than 1000 nM and 1 to 50 nM, respectively. Besides, the “HLMs Predominant Enzyme” value in data set [1] is given as “Mixed”. Further, in data set [1], the half-life worked out at 0.55 h.
Regarding `CC(C)(Sc1ccc(C(=O)OCc2cn(Cc3ccc(C(C)(C)C)cc3)nn2)cc1)C(=O)O` [Compound 69, 2-(4-(((1-(4-tert-butylbenzyl)-1H-1,2,3-triazol-4-yl)methoxy)carbonyl)phenylthio)-2-methylpropanoic acid], the values for the 50% effective concentration (EC50) on Gal-4 hPPARγ and at Gal-4 hPPARα were more than 1000 nM and 1 to 50 nM, respectively. Besides, the “HLMs Predominant Enzyme” value in data set [1] is given as “Esterase”. Besides, the half-life in data set [1] was 1 h.
With `CCCCCCCn1c(COC(=O)c2ccc(OC(C)(C)C(=O)O)cc2)nn(Cc2ccc(C(C)(C)C)cc2)c1=O` [Compound 190, 2-(4-(((1-(4-tert-butylbenzyl)-4-heptyl-5-oxo-4,5-dihydro-1H-1,2,4-triazol-3-yl)methoxy)carbonyl)phenoxy)-2-methylpropanoic acid], the results for the EC50 at Gal-4 hPPARγ and on Gal-4 hPPARα were more than 1000 nM and 1 to 50 nM, respectively. Further, in data set [1], the “HLMs Predominant Enzyme” value is given as “CYP”. The half-life in data set [1] stood at 0.6 h.
`CCCCCCn1c(COC(=O)c2ccc(OC(C)(C)C(=O)O)cc2)nn(Cc2ccc(C(C)(C)C)cc2)c1=O` [Compound 188, 2-(4-(((1-(4-tert-butylbenzyl)-4-hexyl-5-oxo-4,5-dihydro-1H-1,2,4-triazol-3-yl)methoxy)carbonyl)phenoxy)-2-methylpropanoic acid]: the EC50 at Gal-4 hPPARγ was more than 1000 nM. Also, in data set [1], the “HLMs Predominant Enzyme” value was “CYP” and the half-life was more than 1.5 h. Moreover, the EC50 on Gal-4 hPPARα was 1 to 50 nM.
Take `CCCn1c(COC(=O)c2ccc(OC(C)(C)C(=O)O)cc2)nn(Cc2ccc(C(C)(C)C)cc2)c1=O` [Compound 150, 2-(4-(((1-(4-tert-butylbenzyl)-5-oxo-4-propyl-4,5-dihydro-1H-1,2,4-triazol-3-yl)methoxy)carbonyl)phenoxy)-2-methylpropanoic acid]: the EC50 is more than 1000 nM at Gal-4 hPPARγ and 1 to 50 nM on Gal-4 hPPARα. The “HLMs t1/2 (min)” value in data set [1] is listed as “Stable”.
For `Cc1ccc(Cn2cc(COC(=O)c3ccc(SC(C)(C)C(=O)O)cc3)cn2)cc1` [Compound 3, 2-methyl-2-(4-(((1-(4-methylbenzyl)-1H-pyrazol-4-yl)methoxy)carbonyl)phenylthio)propanoic acid], the figures for the EC50 on Gal-4 hPPARγ and on Gal-4 hPPARα were more than 1000 nM and 51 to 200 nM, respectively. In data set [1], the “HLMs t1/2 (min)” value is on record as “Stable”.
As for `CCCCCCCn1c(COC(=O)c2ccc(SC(C)(C)C(=O)O)cc2)nn(Cc2ccc(C)cc2)c1=O` [Compound 191, 2-(4-(((4-heptyl-1-(4-methylbenzyl)-5-oxo-4,5-dihydro-1H-1,2,4-triazol-3-yl)methoxy)carbonyl)phenylthio)-2-methylpropanoic acid], the EC50 on Gal-4 hPPARγ is 51 to 200 nM; at Gal-4 hPPARα, 1 to 50 nM. For the same compound, the “HLMs Predominant Enzyme” value in data set [1] was “Esterase”. Further, the half-life in data set [1] was 0.25 h.
In the same order, the values of `Cc1ccc(Cn2cc([C@@H](C)OC(=O)c3ccc(SC(C)(C)C(=O)O)cc3)nn2)cc1` [Compound 87, (R)-2-methyl-2-(4-((1-(1-(4-methylbenzyl)-1H-1,2,3-triazol-4-yl)ethoxy)carbonyl)phenylthio)propanoic acid] are more than 1000 nM, 1 to 50 nM, “Esterase” and 2.13 h.
Turning to `CCCCCCn1c(COC(=O)c2ccc(SC(C)(C)C(=O)O)cc2)nn(Cc2ccc(C(C)(C)C)cc2)c1=O` [Compound 187, 2-(4-(((1-(4-tert-butylbenzyl)-4-hexyl-5-oxo-4,5-dihydro-1H-1,2,4-triazol-3-yl)methoxy)carbonyl)phenylthio)-2-methylpropanoic acid], the EC50 at Gal-4 hPPARγ fell in the range of 51 to 200 nM; on Gal-4 hPPARα, 1 to 50 nM. Moreover, the “HLMs Predominant Enzyme” value in data set [1] is on record as “Mixed”. Further, in data set [1], the half-life amounted to 0.633 h.
With `CCCCCCn1c(COC(=O)c2ccc(SC(C)(C)C(=O)O)cc2)nn(Cc2ccc(C)cc2)c1=O` [Compound 160, 2-(4-(((4-hexyl-1-(4-methylbenzyl)-5-oxo-4,5-dihydro-1H-1,2,4-triazol-3-yl)methoxy)carbonyl)phenylthio)-2-methylpropanoic acid], the EC50 was 51 to 200 nM on Gal-4 hPPARγ and 1 to 50 nM at Gal-4 hPPARα. For the same compound, the “HLMs t1/2 (min)” value in data set [1] is listed as “Stable”.
With `CCCCCCCCn1c(COC(=O)c2ccc(OC(C)(C)C(=O)O)c(OC)c2)nn(Cc2ccc(C)cc2)c1=O` [Compound 186, 2-(2-methoxy-4-(((1-(4-methylbenzyl)-4-octyl-5-oxo-4,5-dihydro-1H-1,2,4-triazol-3-yl)methoxy)carbonyl)phenoxy)-2-methylpropanoic acid], the values for the EC50 on Gal-4 hPPARγ and on Gal-4 hPPARα were 51 to 200 nM and 1 to 50 nM, respectively. For the same compound, the “HLMs Predominant Enzyme” value in data set [1] is reported as “CYP”. Besides, in data set [1], the half-life worked out at 0.7 h.
`CCCn1c(COC(=O)c2ccc(SC(C)(C)C(=O)O)cc2)nn(Cc2ccc(C(C)(C)C)cc2)c1=O` [Compound 159, 2-(4-(((1-(4-tert-butylbenzyl)-5-oxo-4-propyl-4,5-dihydro-1H-1,2,4-triazol-3-yl)methoxy)carbonyl)phenylthio)-2-methylpropanoic acid]: the values for the EC50 on Gal-4 hPPARγ and at Gal-4 hPPARα were more than 1000 nM and 1 to 50 nM, respectively. Further, the “HLMs t1/2 (min)” value in data set [1] is on record as “Stable”.
With `CCCc1nn(Cc2ccc(C(F)(F)F)cc2)cc1COC(=O)c1ccc(SC(C)(C)C(=O)O)cc1` [Compound 12, 2-methyl-2-(4-(((3-propyl-1-(4-(trifluoromethyl)benzyl)-1H-pyrazol-4-yl)methoxy)carbonyl)phenylthio)propanoic acid], the values for the EC50 on Gal-4 hPPARγ and at Gal-4 hPPARα were more than 1000 nM and 51 to 200 nM, respectively. Moreover, the “HLMs Predominant Enzyme” value in data set [1] is “Esterase”. For the same compound, the half-life in data set [1] turned out to be 1 h.
For the compound `CCCCCCn1c(COC(=O)c2ccc(OC(C)(C)C(=O)O)cc2)nn(Cc2ccc(C)cc2)c1=O` [Compound 151, 2-(4-(((4-hexyl-1-(4-methylbenzyl)-5-oxo-4,5-dihydro-1H-1,2,4-triazol-3-yl)methoxy)carbonyl)phenoxy)-2-methylpropanoic acid], the EC50 on Gal-4 hPPARγ was more than 1000 nM. Besides, in data set [1], the “HLMs Predominant Enzyme” value was “Stable” and the “HLMs t1/2 (min)” value is recorded as “Stable”. Further, the 50% effective concentration (EC50) at Gal-4 hPPARα is 1 to 50 nM.
In the case of `Cc1ccc(Cn2cc(COC(=O)c3ccc(SC(C)(C)C(=O)O)cc3)nn2)cc1` [Compound 60, 2-methyl-2-(4-(((1-(4-methylbenzyl)-1H-1,2,3-triazol-4-yl)methoxy)carbonyl)phenylthio)propanoic acid], on Gal-4 hPPARγ, the EC50 is more than 1000 nM. Moreover, in data set [1], the “HLMs Predominant Enzyme” value is recorded as “Esterase” and the half-life amounted to 1.5 h. Besides, the half-maximal effective concentration (EC50) on Gal-4 hPPARα lay in the range of 1 to 50 nM.
